Converted amounts (≈) assume the structure as drawn.
What was measured:
Format in all cases: functional
[1] = system: Mycobacterium tuberculosis; test: Antitubercular activity against fluoroquinolone-resistant Mycobacterium tuberculosis H37Rv isolate 1 by two-fold serial dilution method
[2] = system: Mycobacterium tuberculosis; test: Antitubercular activity against rifampicin-resistant Mycobacterium tuberculosis H37Rv isolate 1 by two-fold serial dilution method
[3] = system: Mycobacterium tuberculosis; test: Antitubercular activity against isoniazid-resistant Mycobacterium tuberculosis H37Rv isolate 1 by two-fold serial dilution method
[4] = system: Mycobacterium tuberculosis; test: Antitubercular activity against isoniazid-resistant Mycobacterium tuberculosis H37Rv isolate 2 by two-fold serial dilution method
[5] = system: Mycobacterium tuberculosis; test: Antitubercular activity against rifampicin-resistant Mycobacterium tuberculosis H37Rv isolate 2 by two-fold serial dilution method

Row | Structure (SMILES) | MIC [1] [µM] | MIC [2] [µM] | MIC [3] [µM] | MIC [4] [µM] | MIC [5] [µM]
1 | CNC[C@@H](Cc1ccccc1)N1CCN(CCC23CC4CC(CC(C4)C2)C3)[C@H](C(C)C)C1 | 14 (≈ 6.13 µg/mL) | 14 (≈ 6.13 µg/mL) | 1.8 (≈ 0.788 µg/mL) | – | –
2 | CNC[C@@H](Cc1ccccc1)N1CCN(CCC23CC4CC(CC(C4)C2)C3)CC1 | 38 (≈ 15 µg/mL) | 39 (≈ 15.4 µg/mL) | 57 (≈ 22.6 µg/mL) | 68 (≈ 26.9 µg/mL) | 83 (≈ 32.8 µg/mL)
3 | CNC[C@@H](Cc1ccccc1)N1CCN(CCC(c2ccccc2)c2ccccc2)CC1 | 70 (≈ 29.9 µg/mL) | 172 (≈ 73.6 µg/mL) | 74 (≈ 31.6 µg/mL) | 27 (≈ 11.5 µg/mL) | 71 (≈ 30.4 µg/mL)
4 | CCC(C)[C@@H]1CN([C@@H](CNC)Cc2ccccc2)CCN1CCC12CC3CC(CC(C3)C1)C2 (stereo partly drawn) | 28 (≈ 12.6 µg/mL) | 37 (≈ 16.7 µg/mL) | 38 (≈ 17.2 µg/mL) | 41 (≈ 18.5 µg/mL) | 48 (≈ 21.7 µg/mL)

Source: ChEMBL document CHEMBL3792319, “Synthesis and antitubercular activity of 1,2,4-trisubstitued piperazines” (Bioorg Med Chem Lett, 2016)
